Data: patent US20240343717A1, “MICROBIOCIDAL PYRAZOLE DERIVATIVES” (SYNGENTA CROP PROTECTION AG, priority 2021, published 2024)

Tests used:
Type in all cases: cell-based
[1] = tested on: Monographella nivalis (Microdochium nivale); assay: Monographella nivalis (Microdochium nivale) / liquid culture (foot rot cereals); conditions: growth inhibition photometrically 4-5 days after application, read-out: control of Monographella nivalis
Experimental: (§1) Example B9: Monographella nivalis (Microdochium nivale)/Liquid Culture (Foot Rot Cereals) Conidia of the fungus from cryogenic storage are directly mixed into nutrient broth (PDB potato dextrose broth). After placing a (DMSO) solution of test compound into a microtiter plate (96-well format), the nutrient broth containing the fungal spores is added. The test plates are incubated at 24° C. and the inhibition of growth is determined photometrically 4-5 days after application.

[2] = tested on: Botryotinia fuckeliana (Botrytis cinerea); assay: Botryotinia fuckeliana (Botrytis cinerea) / liquid culture (gray mould); conditions: growth inhibition photometrically 3-4 days after application, read-out: control of Botryotinia fuckeliana
Experimental: as §1, with “B2: Botryotinia fuckeliana (Botrytis cinerea)/Liquid” for “B9: Monographella nivalis (Microdochium nivale)/Liquid”, “(Gray Mould)” for “(Foot Rot Cereals)”, “(Vogels” for “(PDB potato dextrose”, “3-4” for “4-5”

[3] = tested on: Mycosphaerella graminicola (Septoria tritici); assay: Mycosphaerella graminicola (Septoria tritici) / liquid culture (Septoria blotch); conditions: Zymoseptoria tritici, growth inhibition photometrically 4-5 days after application, read-out: control of Mycosphaerella graminicola
Experimental: as §1, with “B16: Mycosphaerella graminicola (Septoria tritici)/Liquid” for “B9: Monographella nivalis (Microdochium nivale)/Liquid”, “(Septoria Blotch)” for “(Foot Rot Cereals)”

[4] = tested on: Glomerella lagenarium (Colletotrichum lagenarium); assay: Glomerella lagenarium (Colletotrichum lagenarium) / liquid culture (anthracnose); conditions: Colletotrichum orbiculare, growth inhibition photometrically 3-4 days after application, read-out: control of Glomerella lagenarium
Experimental: as §1, with “B3: Glomerella lagenarium (Colletotrichum lagenarium)/Liquid” for “B9: Monographella nivalis (Microdochium nivale)/Liquid”, “(Anthracnose)” for “(Foot Rot Cereals)”, “measured” for “determined”, “3-4” for “4-5”

| Compound | inhibition of growth at 20 ppm [1] | inhibition of growth at 20 ppm [2] | inhibition of growth at 20 ppm [3] | inhibition of growth at 20 ppm [4] |
| --- | --- | --- | --- | --- |
| Cn1cc(C(C)(CNC(=O)c2nnc(-c3ccc(F)cc3F)s2)c2ncccc2Cl)cn1 (stereo not drawn) [Compound P-1, N-[2-(3-chloro-2-pyridyl)-2-(1-methylpyrazol-4-yl)propyl]-5-(2,4-difluorophenyl)-1,3,4-thiadiazole-2-carboxamide] | ≥ 80% | ≥ 80% | ≥ 80% | – |
| Cn1cc(C(CNC(=O)c2cc(-c3ccc(F)cc3F)on2)c2cccc(Cl)n2)cn1 (stereo not drawn) [Compound P-13, N-[2-(6-chloro-2-pyridyl)-2-(1-methylpyrazol-4-yl)ethyl]-5-(2,4-difluorophenyl)isoxazole-3-carboxamide] | ≥ 80% | ≥ 80% | ≥ 80% | – |
| Cn1cc(C(C)(CNC(=O)c2cc(-c3ccc(F)cc3F)on2)c2cc(Cl)ccn2)cn1 (stereo not drawn) [Compound P-18, N-[2-(4-chloro-2-pyridyl)-2-(1-methylpyrazol-4-yl)propyl]-5-(2,4-difluorophenyl) isoxazole-3-carboxamide] | ≥ 80% | – | ≥ 80% | – |
| Cn1cc(C(C)(CNC(=O)c2cc(-c3ccc(Cl)cc3Cl)on2)c2cccc(Cl)n2)cn1 (stereo not drawn) [Compound P-28] | ≥ 80% | – | ≥ 80% | ≥ 80% |
| Cn1cc(C(C)(CNC(=O)c2cc(-c3ccc(F)cc3F)on2)c2ccc(Br)cn2)cn1 (stereo not drawn) [Compound P-33, N-[2-(5-bromo-2-pyridyl)-2-(1-methylpyrazol-4-yl)propyl]-5-(2,4-difluorophenyl) isoxazole-3-carboxamide] | ≥ 80% | – | ≥ 80% | ≥ 80% |
| Cn1cc(C(C)(CNC(=O)c2cc(-c3ccc(F)cc3F)on2)c2cc(O)cc(Cl)n2)cn1 (stereo not drawn) [Compound P-38, N-[2-(6-chloro-4-hydroxy-2-pyridyl)-2-(1-methylpyrazol-4-yl)propyl]-5-(2,4-difluorophenyl) isoxazole-3-carboxamide] | – | ≥ 80% | ≥ 80% | – |
| Cn1cc(C(C)(CNC(=O)c2cc(-c3ccc(F)cc3F)on2)c2cc(C#N)cc(Cl)n2)cn1 (stereo not drawn) [Compound P-41, N-[2-(6-chloro-4-cyano-2-pyridyl)-2-(1-methylpyrazol-4-yl)propyl]-5-(2,4-difluorophenyl) isoxazole-3-carboxamide] | – | ≥ 80% | ≥ 80% | – |
| COc1cc(Cl)nc([C@](C)(CNC(=O)c2cc(-c3ccc(F)cc3F)no2)c2cnn(C)c2)c1 [Compound P-47, N-[(2S)-2-(6-chloro-4-methoxy-2-pyridyl)-2-(1-methylpyrazol-4-yl)propyl]-3-(2,4-difluorophenyl) isoxazole-5-carboxamide] | ≥ 80% | ≥ 80% | ≥ 80% | – |
| COC(=O)c1ccc(C(C)(CNC(=O)c2cc(-c3ccc(F)cc3F)on2)c2cnn(C)c2)nc1 (stereo not drawn) [Compound P-55, methyl 6-[2-[[5-(2,4-difluorophenyl)isoxazole-3-carbonyl]amino]-1-methyl-1-(1-methylpyrazol-4-yl)ethyl]pyridine-3-carboxylate] | ≥ 80% | ≥ 80% | ≥ 80% | ≥ 80% |
| CC(=O)c1ccc(C(C)(CNC(=O)c2cc(-c3ccc(F)cc3F)on2)c2cnn(C)c2)nc1 (stereo not drawn) [Compound P-57, N-[2-(5-acetyl-2-pyridyl)-2-(1-methylpyrazol-4-yl)propyl]-5-(2,4-difluorophenyl) isoxazole-3-carboxamide] | ≥ 80% | – | ≥ 80% | ≥ 80% |
| Cn1cc(C(C)(CNC(=O)c2cc(-c3ccc(F)cc3F)on2)c2ccc(N)cn2)cn1 (stereo not drawn) [Compound P-58, N-[2-(5-amino-2-pyridyl)-2-(1-methylpyrazol-4-yl)propyl]-5-(2,4-difluorophenyl) isoxazole-3-carboxamide] | ≥ 80% | – | – | – |
| Cn1cc(C(C)(CNC(=O)c2cc(-c3ccc(F)cc3F)on2)c2cc(Br)ccn2)cn1 (stereo not drawn) [Compound P-66, N-[2-(4-bromo-2-pyridyl)-2-(1-methylpyrazol-4-yl)propyl]-5-(2,4-difluorophenyl) isoxazole-3-carboxamide] | – | – | ≥ 80% | – |
| COc1cc(C#N)nc(C(C)(CNC(=O)c2cc(-c3ccc(F)cc3F)on2)c2cnn(C)c2)c1 (stereo not drawn) [Compound P-67, N-[2-(6-cyano-4-methoxy-2-pyridyl)-2-(1-methylpyrazol-4-yl)propyl]-5-(2,4-difluorophenyl) isoxazole-3-carboxamide] | ≥ 80% | – | ≥ 80% | – |
| Cc1cc(C(=O)NCC(C)(c2cnn(C)c2)c2cccc(Cl)n2)no1 (stereo not drawn) [Compound P-77, N-[2-(6-chloro-2-pyridyl)-2-(1-methylpyrazol-4-yl)propyl]-5-methyl-isoxazole-3-carboxamide] | – | – | ≥ 80% | – |
| COc1ncc(-c2cccc(C(C)(CNC(=O)c3cc(-c4ccc(F)cc4F)on3)c3cnn(C)c3)n2)c(OC)n1 (stereo not drawn) [Compound P-88, 5-(2,4-difluorophenyl)-N-[2-[6-(2,4-dimethoxypyrimidin-5-yl)-2-pyridyl]-2-(1-methylpyrazol-4-yl)propyl]isoxazole-3-carboxamide] | ≥ 80% | ≥ 80% | ≥ 80% | – |
| Cc1cc(-c2cccc(C(C)(CNC(=O)c3cc(-c4ccc(F)cc4F)on3)c3cnn(C)c3)n2)ccn1 (stereo not drawn) [Compound P-89, 5-(2,4-difluorophenyl)-N-[2-(1-methylpyrazol-4-yl)-2-[6-(2-methyl-4-pyridyl)-2-pyridyl]propyl] isoxazole-3-carboxamide] | ≥ 80% | – | ≥ 80% | – |
| Cc1cncc(-c2cccc(C(C)(CNC(=O)c3cc(-c4ccc(F)cc4F)on3)c3cnn(C)c3)n2)c1 (stereo not drawn) [Compound P-91, 5-(2,4-difluorophenyl)-N-[2-(1-methylpyrazol-4-yl)-2-[6-(5-methyl-3-pyridyl)-2-pyridyl]propyl] isoxazole-3-carboxamide] | ≥ 80% | – | ≥ 80% | – |
| Cc1noc(C)c1-c1cccc(C(C)(CNC(=O)c2cc(-c3ccc(F)cc3F)on2)c2cnn(C)c2)n1 (stereo not drawn) [Compound P-94, 5-(2,4-difluorophenyl)-N-[2-[6-(3,5-dimethylisoxazol-4-yl)-2-pyridyl]-2-(1-methylpyrazol-4-yl)propyl]isoxazole-3-carboxamide] | ≥ 80% | – | ≥ 80% | – |
| Cn1cc(C(C)(CNC(=O)c2cc(-c3ccc(F)cc3F)on2)c2cccc(-c3ccnn3C)n2)cn1 (stereo not drawn) [Compound P-95, 5-(2,4-difluorophenyl)-N-[2-(1-methylpyrazol-4-yl)-2-[6-(2-methylpyrazol-3-yl)-2-pyridyl]propyl] isoxazole-3-carboxamide] | ≥ 80% | – | ≥ 80% | – |
| Cc1ncc(-c2cccc(C(C)(CNC(=O)c3cc(-c4ccc(F)cc4F)on3)c3cnn(C)c3)n2)cc1F (stereo not drawn) [Compound P-97, 5-(2,4-difluorophenyl)-N-[2-[6-(5-fluoro-6-methyl-3-pyridyl)-2-pyridyl]-2-(1-methylpyrazol-4-yl)propyl]isoxazole-3-carboxamide] | – | – | ≥ 80% | – |
| Cc1c(-c2cccc(C(C)(CNC(=O)c3cc(-c4ccc(F)cc4F)on3)c3cnn(C)c3)n2)ccnc1F (stereo not drawn) [Compound P-98, 5-(2,4-difluorophenyl)-N-[2-[6-(2-fluoro-3-methyl-4-pyridyl)-2-pyridyl]-2-(1-methylpyrazol-4-yl)propyl]isoxazole-3-carboxamide] | – | – | ≥ 80% | – |
| COc1cccc(C(C)(CNC(=O)c2cc(-c3ccc(F)cc3OC)on2)c2cnn(C)c2)n1 (stereo not drawn) [Compound P-99, 5-(4-fluoro-2-methoxy-phenyl)-N-[2-(6-methoxy-2-pyridyl)-2-(1-methylpyrazol-4-yl)propyl]isoxazole-3-carboxamide] | – | – | ≥ 80% | – |
| Cn1cc(C(C)(CNC(=O)c2cc(-c3ccc(F)cc3F)on2)c2cccc(C3(C#N)CC3)n2)cn1 (stereo not drawn) [Compound P-104, N-[2-[6-(1-cyanocyclopropyl)-2-pyridyl]-2-(1-methylpyrazol-4-yl)propyl]-5-(2,4-difluorophenyl) isoxazole-3-carboxamide] | ≥ 80% | – | ≥ 80% | – |
| COc1ccc(C(C)(CNC(=O)c2cc(-c3ccc(F)cc3F)on2)c2cnn(C)c2)nc1Br (stereo not drawn) [Compound P-109, N-[2-(6-bromo-5-methoxy-2-pyridyl)-2-(1-methylpyrazol-4-yl)propyl]-5-(2,4-difluorophenyl) isoxazole-3-carboxamide] | – | – | ≥ 80% | – |
| COc1ccc(C(C)=O)nc1C(C)(CNC(=O)c1cc(-c2ccc(F)cc2F)on1)c1cnn(C)c1 (stereo not drawn) [Compound P-112] | – | – | ≥ 80% | – |
